Results reported in patent publication US7691855B2, “Phenyl-[4-(3-phenyl-1h-pyrazol-4-yl)-pyrimidin-2-yl)-amine derivatives” (Novartis AG, priority 2002, dated 2010).

SMILES | melting point [°C]
Clc1ccc(-c2n[nH]cc2-c2ccnc(Nc3ccc(N4CCNCC4)cc3)n2)cc1 [Example 122, {4-[3-(4-Chloro-phenyl)-1H-pyrazol-4yl]-pyrimidin-2-yl}-(4piperazin-1-yl-phenyl)-amine] | 214
COc1cccc(Nc2nccc(-c3c[nH]nc3-c3ccc(Cl)cc3)n2)c1 [Example 69, {4-[3-(4-Chloro-phenyl)-1H-pyrazol-4-yl]-pyrimidin-2-yl}-(3-methoxy-phenyl)-amine] | 261
CCN1CCN(Cc2ccc(Nc3nccc(-c4c[nH]nc4-c4ccccc4)n3)cc2)CC1 [Example 115, [4-(4-Ethyl-piperazin-1-ylmethyl)-phenyl]-[4-(3-phenyl-1H-pyrazol-4-yl)-pyrimidin-2-yl]-amine] | 227
CCN1CCN(c2ccc(Nc3nccc(-c4c[nH]nc4-c4ccc(Cl)cc4)n3)cc2)CC1 [Example 121, {4-[3-(4-Chloro-phenyl)-1H-pyrazol-4yl]-pyrimidin-2-yl}-[4-(4-ethyl-piperazin-1-yl)-phenyl]-amine] | 268
CN1CCC(n2ncc(-c3ccnc(Nc4ccc(CN5CCN(C)CC5)cc4)n3)c2-c2ccc(Cl)cc2)CC1 [Example 81, {4-[5-(4-Chloro-phenyl)-1-(1-methyl-piperidin-4yl)-1H-pyrazol-4yl]-pyrimidin-2-yl}-[4-(4methyl-piperazin-1-ylmethyl)-phenyl]-amine] | 180
COc1ccc(Nc2nccc(-c3c[nH]nc3-c3ccc(Cl)cc3)n2)cc1OC [Example 68, {4-[3-(4-Chloro-phenyl)-1H-pyrazol-4yl]-pyrimidin-2-yl}-(3,4-dimethoxy-phenyl)-amine] | 261
CCN1CCN(Cc2ccc(Nc3nccc(-c4cnn(C)c4-c4ccc(C)cc4)n3)cc2)CC1 [Example 118, [4-(4-Ethyl-piperazin-1-ylmethyl)-phenyl]-[4-(1-methyl-5-p-tolyl-1H-pyrazol-4-yl)-pyrimidin-2-yl]-amine] | 82
COc1cccc(Nc2nccc(-c3cnn(CC4CCN(C)CC4)c3-c3ccc(Cl)cc3)n2)c1 [Example 108, {4-[5-(4-Chloro-phenyl)-1-(1-methyl-piperidin-4-ylmethyl)-1H-pyrazol-4-yl]-pyrimidin-2-yl}-(3-methoxy-phenyl)-amine] | 180
COc1cc(Nc2nccc(-c3c[nH]nc3-c3ccccc3Cl)n2)cc(OC)c1OC [Example 53, {4-[3-(2-Chloro-phenyl)-1H-pyrazol-4-yl]-pyrimidin-2-yl}-(3,4,5-trimethoxy-phenyl)-amine] | 257.5
CCN1CCN(Cc2ccc(Nc3nccc(-c4c[nH]nc4-c4ccc(Cl)cc4)n3)cc2)CC1 [Example 114, {4-[3-(4-Chloro-phenyl)-1H-pyrazol-4yl]-pyrimidin-2-yl}-[4-(4-ethyl-piperazin-1-ylmethyl)-phenyl]-amine] | 247
COc1ccc(Nc2nccc(-c3cn(C)nc3-c3ccc(Cl)cc3Cl)n2)cc1OC [Example 57, {4-[3-(2,4Dichloro-phenyl)-1-methyl-1H-pyrazol-4-yl]-pyrimidin-2-yl}-(3,4-dimethoxy-phenyl)-amine] | 180
Cc1ccc(-c2n[nH]cc2-c2ccnc(Nc3ccc(C(=O)O)cc3)n2)cc1 [Example 58, 4-[4-(3-p-Tolyl-1H-pyrazol-4-yl)-pyrimidin-2-ylamino]-benzoic acid] | 341
Cc1ccc(-c2n[nH]cc2-c2ccnc(Nc3ccc(CN4CCN(CCO)CC4)cc3)n2)cc1 [Example 111, 2-(4-{4-[4-(3-p-Tolyl-1H-pyrazol-4yl)-pyrimidin-2-ylamino]-benzyl}piperazin-1-yl)-ethanol] | 233
COc1ccc(Nc2nccc(-c3cnn(CCN(C)C)c3-c3ccc(Cl)cc3)n2)cc1OC [Example 73, {4-[5-(4-Chloro-phenyl)-1-(2-dimethylamino-ethyl)-1H-pyrazol-4-yl]-pyrimidin-2-yl}-(3,4-dimethoxy-phenyl)-amine] | 157
Cc1ccc(-c2c(-c3ccnc(Nc4ccc(N5CCN(C)CC5)cc4)n3)cnn2CCN(C)C)cc1 [Example 54, {4-[1-(2-Dimethylamino-ethyl)-5-p-tolyl-1H-pyrazol-4-yl]-pyrimidin-2-yl}-[4-(4-methyl-piperazin-1-yl)-phenyl]-amine] | 184
COc1cc(Nc2nccc(-c3c[nH]nc3-c3ccc(Cl)cc3)n2)cc(OC)c1OC [Example 67, {4-[3-(4-Chloro-phenyl)-1H-pyrazol-4-yl]-pyrimidin-2-yl}-(3,4,5-trimethoxy-phenyl)-amine] | 271
COc1cc(Nc2nccc(-c3cnn(CCN(C)C)c3-c3ccc(Cl)cc3)n2)cc(OC)c1OC [Example 71, {4-[5-(4-Chloro-phenyl)-1-(2-dimethylamino-ethyl)-1H-pyrazol-4-yl]-pyrimidin-2-yl}-(3,4,5-trimethoxy-phenyl)-amine] | 153

SMILES | melting point [°C]
Cc1ccc(-c2nn(CCN(C)C)cc2-c2ccnc(Nc3ccc(N4CCN(C)CC4)cc3)n2)cc1 [Example 55, {4-[1-(2-Dimethylamino-ethyl)-3-p-tolyl-1H-pyrazol-4-yl]-pyrimidin-2-yl}-[4-(4-methyl-piperazin-1-yl)-phenyl]-amine] | 174
CN(C)CCn1ncc(-c2ccnc(Nc3ccc(CN4CCN(C)CC4)cc3)n2)c1-c1ccc(Cl)cc1 [Example 77, {4-[5-(4-Chloro-phenyl)-1-(2-dimethylamino-ethyl)-1H-pyrazol-4yl]-pyrimidin-2-yl}-[4-(4-methyl-piperazin-1-ylmethyl)-phenyl]-amine] | 159
COc1ccc(Nc2nccc(-c3cnn(C)c3-c3ccc(Cl)cc3Cl)n2)cc1OC [Example 56, {4-[5-(2,4-Dichloro-phenyl)-1-methyl-1H-pyrazol-4-yl]-pyrimidin-2-yl}-(3,4-dimethoxy-phenyl)-amine] | 157
COc1cccc(Nc2nccc(-c3cnn(CCN(C)C)c3-c3ccc(Cl)cc3)n2)c1 [Example 75, {-4-[5-(4Chloro-phenyl)-1-(2-dimethylamino-ethyl)-1H-pyrazol-4-yl]-pyrimidin-2-yl}-(3-methoxy-phenyl)-amine] | 118
CCN1CCN(Cc2ccc(Nc3nccc(-c4cn(C)nc4-c4ccc(C)cc4)n3)cc2)CC1 [Example 117, [4-(4-Ethyl-piperazin-1-ylmethyl)-phenyl]-[4-(1-methyl-3-p-tolyl-1H-pyrazol-4-yl)-pyrimidin-2-yl]-amine] | 88
Cc1ccc(-c2n[nH]cc2-c2ccnc(Nc3ccc(C(=O)N4CCN(C)CC4)cc3)n2)cc1 [Example 59, (4Methyl-piperazin-1-yl)-{4-[4-(3-p-tolyl-1H-pyrazol-4-yl)-pyrimidin-2-ylamino]-phenyl}-methanone] | 264
Cc1ccc(-c2nn(C3CCN(C)CC3)cc2-c2ccnc(Nc3ccc(CN4CCN(C)CC4)cc3)n2)cc1 [Example 85, [4-(4-Methyl-piperazin-1-ylmethyl)-phenyl]-{4-[1-(1-methyl-piperidin-4-yl)-3-p-tolyl-1H-pyrazol-4-yl]-pyrimidin-2-yl}-amine] | 174
COc1cc(OC)cc(-c2n[nH]cc2-c2ccnc(Nc3cccc(S(N)(=O)=O)c3)n2)c1 [Example 113, 3-{4-[3-(3,5-Dimethoxy-phenyl)-1H-pyrazol-4-yl]-pyrimidin-2-ylamino}-benzenesulfonamide] | 257
Cc1ccc(-c2nn(C)cc2-c2ccnc(Nc3ccc(CN4CCN(C)CC4)cc3)n2)cc1 [Example 66, [4-(4-Methyl-piperazin-1-ylmethyl)-phenyl]-[4-(1-methyl-3-p-tolyl-1H-pyrazol-4-yl)-pyrimidin-2-yl]-amine] | 151
CN1CCN(Cc2ccc(Nc3nccc(-c4c[nH]nc4-c4cccc(C(F)(F)F)c4)n3)cc2)CC1 [Example 110, [4-(4-Methyl-piperazin-1-ylmethyl)-phenyl]-{4-[3-(3-trifluoromethyl-phenyl)-1H-pyrazol-4yl]-pyrimidin-2-yl}-amine] | 221
CN1CCC(COc2cccc(Nc3nccc(-c4cn(C)nc4-c4ccc(Cl)cc4)n3)c2)CC1 [Example 112, {4-[3-(4-Chloro-phenyl)-1-methyl-1H-pyrazol-4-yl]-pyrimidin-2-yl}-[3-(1-methyl-piperidin-4-ylmethoxy)-phenyl]-amine] | 138
COc1cccc(Nc2nccc(-c3cn(CC4CCN(C)CC4)nc3-c3ccc(Cl)cc3)n2)c1 [Example 107, {4-[3-(4-Chloro-phenyl)-1-(1methyl-piperidin-4-ylmethyl)-1H-pyrazol-4-yl]-pyrimidin-2-yl}-(3-methoxy-phenyl)-amine] | 65
CN1CCN(Cc2ccc(Nc3nccc(-c4cnn(C)c4-c4ccc(Cl)cc4)n3)cc2)CC1 [Example 79, {4-[5-(4Chloro-phenyl)-1-methyl-1H-pyrazol-4-yl]-pyrimidin-2-yl}-[4-(4-methyl-piperazin-1-ylmethyl)-phenyl]-amine] | 186
Cc1cccc(-c2n[nH]cc2-c2ccnc(Nc3ccc(N4CCN(C)CC4)cc3)n2)c1C [Example 50, {4-[3-(2,3-Dimethyl-phenyl)-1H-pyrazol-4-yl]-pyrimidin-2-yl}-[4-(4-methyl-piperazin-1-yl)phenyl]-amine] | 305
COc1cc(Nc2nccc(-c3cn(CCN(C)C)nc3-c3ccc(Cl)cc3)n2)cc(OC)c1OC [Example 70, {4-[3-(4-Chloro-phenyl)-1-(2-dimethylamino-ethyl)-1H-pyrazol-4-yl]-pyrimidin-2-yl}-(3,4,5-trimethoxy-phenyl)-amine] | 150
COc1cc(Nc2nccc(-c3c[nH]nc3-c3cccc(C)c3C)n2)cc(OC)c1OC [Example 51, {4-[3-(2,3-Dimethyl-phenyl)-1H-pyrazol-4-yl]-pyrimidin-2-yl}-(3,4,5-trimethoxy-phenyl)-amine] | 249
Cc1ccc(-c2c(-c3ccnc(Nc4ccc(CN5CCN(C)CC5)cc4)n3)cnn2CCN(C)C)cc1 [Example 82, {4-[1-(2-Dimethylamino-ethyl)-5-p-tolyl-1H-pyrazol-4-yl]-pyrimidin-2-yl}-[4-(4 methyl-piperazin-1-ylmethyl)-phenyl]-amine] | 123
